Test results from patent publication US9701670B2, “Pyrazolyl-ureas as kinase inhibitors” (RESPIVERT LIMITED, priority 2013, dated 2017).

Assays:
[1] = biological target: p38 MAPKα isoform (MAPK14) (Homo sapiens (Human), UniProt Q16539); assay: p38 MAPKα enzyme inhibition (FRET, Z-LYTE), Method 1; format: biochemical; settings: Method 1 (Table 4a1)
[2] = tested on: Differentiated U937 cells; assay: (l) Cell viability: MTT assay; format: cell-based, human; settings: 1 μg/mL
In short: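 MTT read-out (1 h, absorbance 550 nm) on d-U937 cells after pre-incubation with 1 or 10 μg/mL compound under two regimes: 4 h, 5% FCS, or 24 h, 10% FCS RPMI1640. Values are percent loss of viability relative to vehicle (0.5% DMSO), so increases are reported as negative.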

p38 MAPKα isoform (MAPK14), sequence (Q16539 whole entry, canonical isoform): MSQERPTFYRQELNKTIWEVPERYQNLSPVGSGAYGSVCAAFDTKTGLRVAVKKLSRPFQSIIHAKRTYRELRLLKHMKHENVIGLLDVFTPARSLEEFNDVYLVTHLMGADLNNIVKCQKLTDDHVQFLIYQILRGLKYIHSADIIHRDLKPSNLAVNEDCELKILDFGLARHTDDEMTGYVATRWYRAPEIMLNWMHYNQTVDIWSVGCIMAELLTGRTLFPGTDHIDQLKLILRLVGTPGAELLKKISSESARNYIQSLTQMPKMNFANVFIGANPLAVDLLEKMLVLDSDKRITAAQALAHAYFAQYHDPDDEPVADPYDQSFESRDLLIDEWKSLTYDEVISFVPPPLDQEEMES

IC50 [1]	Structure (SMILES)	Cell viability at time point in d-U937 cells 4 h [2]	Cell viability at time point in d-U937 cells 24 h [2]
1 nM	COc1cc(Nc2nccc(Oc3ccc(NC(=O)Nc4cc(C(C)C)nn4-c4ccc(C)cc4)c4ccccc34)n2)cc(C(=O)NCCN(C)C)c1 [Example 5, N-(2-(Dimethylamino)ethyl)-3-((4-((4-(3-(3-isopropyl-1-(p-tolyl)-1H-pyrazol-5-yl)ureido)naphthalen-1-yl)oxy)pyrimidin-2-yl)amino)-5-methoxybenzamide]	−ve (−ve and +ve indicate that the value is below and above respectively, the no significant effect threshold, defined as 30% inhibition at 1 μg/mL at the time point indicated.)	−ve (−ve and +ve indicate that the value is below and above respectively, the no significant effect threshold, defined as 30% inhibition at 1 μg/mL at the time point indicated.)
5 nM	COc1ccc(Nc2nccc(Oc3ccc(NC(=O)Nc4cc(C(C)C)nn4-c4ccc(C)cc4)c4ccccc34)n2)cc1C(=O)NCCN1CCOCC1 [Example 70, 5-((4-((4-(3-(3-isopropyl-1-(p-tolyl)-1H-pyrazol-5-yl)ureido)naphthalen-1-yl)oxy)pyrimidin-2-yl)amino)-2-methoxy-N-(2-morpholinoethyl)benzamide]	−ve (−ve and +ve indicate that the value is below and above respectively, the no significant effect threshold, defined as 30% inhibition at 1 μg/mL at the time point indicated.)	−ve (−ve and +ve indicate that the value is below and above respectively, the no significant effect threshold, defined as 30% inhibition at 1 μg/mL at the time point indicated.)
15 nM	COc1cc(Nc2nccc(Oc3ccc(NC(=O)Nc4cc(C5(C)CC5)nn4-c4ccc(C)cc4)c4ccccc34)n2)cc(C(=O)NCCN2CCOCC2)c1 [Example 51, 3-methoxy-5-((4-((4-(3-(3-(1-methylcyclopropyl)-1-(p-tolyl)-1H-pyrazol-5-yl)ureido)naphthalen-1-yl)oxy)pyrimidin-2-yl)amino)-N-(2-morpholinoethyl)benzamide]	−ve (−ve and +ve indicate that the value is below and above respectively, the no significant effect threshold, defined as 30% inhibition at 1 μg/mL at the time point indicated.)	−ve (−ve and +ve indicate that the value is below and above respectively, the no significant effect threshold, defined as 30% inhibition at 1 μg/mL at the time point indicated.)
2 nM	COc1cc(Nc2nccc(Oc3ccc(NC(=O)Nc4cc(C(C)C)nn4-c4ccc(C)cc4)c4ccccc34)n2)cc(C(=O)N2CCN(C)CC2)c1 [Example 69, 1-(3-isopropyl-1-(p-tolyl)-1H-pyrazol-5-yl)-3-(4-((2-((3-methoxy-5-(4-methylpiperazine-1-carbonyl)phenyl)amino)pyrimidin-4-yl)oxy)naphthalen-1-yl)urea]	−ve (−ve and +ve indicate that the value is below and above respectively, the no significant effect threshold, defined as 30% inhibition at 1 μg/mL at the time point indicated.)	−ve (−ve and +ve indicate that the value is below and above respectively, the no significant effect threshold, defined as 30% inhibition at 1 μg/mL at the time point indicated.)
7 nM	Cc1ccc(-n2nc(C(C)(C)C)cc2NC(=O)Nc2ccc(Oc3ccnc(Nc4cccc(C(=O)NCCN5CCOCC5)c4)n3)c3ccccc23)cc1 [Example 3, 3-((4-((4-(3-(3-(tert-Butyl)-1-(p-tolyl)-1H-pyrazol-5-yl)ureido)naphthalen-1-yl)oxy)pyrimidin-2-yl)amino)-N-(2-morpholinoethyl)benzamide]	−ve (−ve and +ve indicate that the value is below and above respectively, the no significant effect threshold, defined as 30% inhibition at 1 μg/mL at the time point indicated.)	−ve (−ve and +ve indicate that the value is below and above respectively, the no significant effect threshold, defined as 30% inhibition at 1 μg/mL at the time point indicated.)
< 1 nM	COc1cc(Nc2nccc(Oc3ccc(NC(=O)Nc4cc(C(C)C)nn4-c4ccc(C)cc4)c4ccccc34)n2)cc(C(=O)N(C)CCN2CCOCC2)c1 [Example 68, 3-((4-((4-(3-(3-isopropyl-1-(p-tolyl)-1H-pyrazol-5-yl)ureido)naphthalen-1-yl)oxy)pyrimidin-2-yl)amino)-5-methoxy-N-methyl-N-(2-morpholinoethyl)benzamide]	−ve (−ve and +ve indicate that the value is below and above respectively, the no significant effect threshold, defined as 30% inhibition at 1 μg/mL at the time point indicated.)	−ve (−ve and +ve indicate that the value is below and above respectively, the no significant effect threshold, defined as 30% inhibition at 1 μg/mL at the time point indicated.)
< 1 nM	COc1ccc(C(=O)NCCN(C)C)cc1Nc1nccc(Oc2ccc(NC(=O)Nc3cc(C(C)C)nn3-c3ccc(C)cc3)c3ccccc23)n1 [Example 28, N-(2-(dimethylamino)ethyl)-3-((4-((4-(3-(3-isopropyl-1-(p-tolyl)-1H-pyrazol-5-yl)ureido)naphthalen-1-yl)oxy)pyrimidin-2-yl)amino)-4-methoxybenzamide]	−ve (−ve and +ve indicate that the value is below and above respectively, the no significant effect threshold, defined as 30% inhibition at 1 μg/mL at the time point indicated.)	−ve (−ve and +ve indicate that the value is below and above respectively, the no significant effect threshold, defined as 30% inhibition at 1 μg/mL at the time point indicated.)
6 nM	COc1cc(Nc2nccc(Oc3ccc(NC(=O)Nc4cc(C(C)C)nn4-c4ccc(OC)nc4)c4ccccc34)n2)cc(C(=O)NCCN2CCOCC2)c1 [Example 10, 3-((4-((4-(3-(3-Isopropyl-1-(6-methoxypyridin-3-yl)-1H-pyrazol-5-yl)ureido)naphthalen-1-yl)oxy)pyrimidin-2-yl)amino)-5-methoxy-N-(2-morpholinoethyl)benzamide]	−ve (−ve and +ve indicate that the value is below and above respectively, the no significant effect threshold, defined as 30% inhibition at 1 μg/mL at the time point indicated.)	−ve (−ve and +ve indicate that the value is below and above respectively, the no significant effect threshold, defined as 30% inhibition at 1 μg/mL at the time point indicated.)
24 nM	COCCNC(=O)c1cc(Nc2nccc(Oc3ccc(NC(=O)Nc4cc(C(C)C)nn4-c4ccc(C)cc4)c4ccccc34)n2)cc(OC)c1 [Example 66, 3-((4-((4-(3-(3-isopropyl-1-(p-tolyl)-1H-pyrazol-5-yl)ureido)naphthalen-1-yl)oxy)pyrimidin-2-yl)amino)-5-methoxy-N-(2-methoxyethyl)benzamide]	−ve (−ve and +ve indicate that the value is below and above respectively, the no significant effect threshold, defined as 30% inhibition at 1 μg/mL at the time point indicated.)	−ve (−ve and +ve indicate that the value is below and above respectively, the no significant effect threshold, defined as 30% inhibition at 1 μg/mL at the time point indicated.)
22 nM	Cc1ccc(-n2nc(C(C)(C)C)cc2NC(=O)Nc2ccc(Oc3ccnc(Nc4cc(Br)cc(C(=O)NCCN5CCOCC5)c4)n3)c3ccccc23)cc1 [Example 62, 3-bromo-5-((4-((4-(3-(3-(tert-butyl)-1-(p-tolyl)-1H-pyrazol-5-yl)ureido)naphthalen-1-yl)oxy)pyrimidin-2-yl)amino)-N-(2-morpholinoethyl)benzamide]	−ve (−ve and +ve indicate that the value is below and above respectively, the no significant effect threshold, defined as 30% inhibition at 1 μg/mL at the time point indicated.)	+ve (−ve and +ve indicate that the value is below and above respectively, the no significant effect threshold, defined as 30% inhibition at 1 μg/mL at the time point indicated.)
23 nM	COc1ccc(-n2nc(C(C)C)cc2NC(=O)Nc2ccc(Oc3ccnc(Nc4cc(OC)cc(C(=O)NCCO)c4)n3)c3ccccc23)cc1 [Example 65, N-(2-hydroxyethyl)-3-((4-((4-(3-(3-isopropyl-1-(4-methoxyphenyl)-1H-pyrazol-5-yl)ureido)naphthalen-1-yl)oxy)pyrimidin-2-yl)amino)-5-methoxybenzamide]	−ve (−ve and +ve indicate that the value is below and above respectively, the no significant effect threshold, defined as 30% inhibition at 1 μg/mL at the time point indicated.)	−ve (−ve and +ve indicate that the value is below and above respectively, the no significant effect threshold, defined as 30% inhibition at 1 μg/mL at the time point indicated.)
7 nM	COc1ccc(-n2nc(C(C)C)cc2NC(=O)Nc2ccc(Oc3ccnc(Nc4cc(OC)cc(C(=O)NCCN5CCOCC5)c4)c3)c3ccccc23)cc1 [Example 15, 3-((4-((4-(3-(3-isopropyl-1-(4-methoxyphenyl)-1H-pyrazol-5-yl)ureido)naphthalen-1-yl)oxy)pyridin-2-yl)amino)-5-methoxy-N-(2-morpholinoethyl)benzamide]	−ve (−ve and +ve indicate that the value is below and above respectively, the no significant effect threshold, defined as 30% inhibition at 1 μg/mL at the time point indicated.)	−ve (−ve and +ve indicate that the value is below and above respectively, the no significant effect threshold, defined as 30% inhibition at 1 μg/mL at the time point indicated.)
